Columns and labels:
U251 = test: LDH cytotoxicity assay and HLA block, U251; format: cell-based, human
Procedure: (§1) The human glioma cell lines (U87-MG and U251) were obtained from the Cell Bank of Type Culture Collection of the Chinese Academy of Science (Shanghai, China). Decitabine (DAC, CAS No. A3656), valproic acid (VPA, CAS No. 99-66-1), and trichostatin A (TSA, CAS No. 58880-19-6) were purchased from Sigma-Aldrich Corporation (St. Louis, MO, USA). DAC and TSA were dissolved in DMSO to a concentration of 10 mM. Aliquots were stored at −80°C and diluted with media before being used. Drug treatments were divided into seven groups: (1) DAC group: cells were cultured in medium on the presence of 1 μM DAC for 120 h; (2) VPA group: cells were grown in medium containing 1 mM VPA for 120 h; (3) TSA group: cells were cultured in medium supplemented with 1 μM TSA for 24 h; (4) D + V group: cells were cultured with 1 μM DAC and 1 mM VPA for 120 h; (5) D + T group: cells were cultured with 1 μM DAC for 120 h, followed by 1 μM TSA for 24 h; (6) Control group: cells were cultured with 0.09% DMSO, which is the highest concentration of DMSO used in this study in consideration of the potential toxicity of DMSO to living cells. Human recombinant interleukin (IL) IL-2, IL-4, and human recombinant granulocyte/macrophage colony-stimulating factor (GM-CSF) were purchased from R&D Systems.
The cytotoxic activity of MAGE-D4 peptide-specific CTLs to glioma cells was determined according to the instructions of the manufacturers by our published method ([31]). […] Four hours later, suspended cells were collected for CD107a flow cytometry, meanwhile, the supernatant was collected and analyzed with granzyme A and perforin ELISA kit (Cloud-Clone Corporation, Wuhan, China) at 450 nm, and the LDH kit (Promega, USA) at 490 nm. The percentage of specific lysis was calculated using the following formula: [(experimental release − spontaneous release)/(maximum release − spontaneous release)] × 100. […] Then, the cytotoxicity assay was measured and calculated as mentioned above.

U87 glioma tissues = test: CD8 immunohistochemistry of xenograft tissue; format: in vivo, BALB/C nude female mice; conditions: MAGE-D4-specific T cells in TSA-treated U87 glioma tissues, IHC
Procedure: Eighteen BALB/C nude female mice aged 4 weeks were provided by the Guangxi Experimental Animal Center. The mice were placed in a light-controlled room at 24 ± 1 °C (light: 7:00–19:00 h, dark: 19:00–7:00 h) and fed under specific pathogen-free conditions. All protocols followed the guidelines of the National Research Council for the Care and Use of Laboratory Animals and were approved by the Animal Ethics Committee of Guangxi Medical University. To develop a xenograft model, 4 × 10^6 U87 cells were inoculated into the flanks of the mice subcutaneously. Two weeks later, mice simultaneously received intraperitoneal peritumorally injections of TSA (0.5 mg/kg) and 1 × 10^7 peptides loaded on CD8^+ T cells, respectively. Every […], tumor volumes were measured simultaneously with a caliper. Mice were sacrificed by euthanasia when visibly ill. Mice injected with negative peptide-induced CTLs and CTLs without peptides were included as controls. The tumor volumes were calculated using the following formula: tumor volume = [(width2 × length)/2]. Immunochemistry was conducted to detect expressions of CD8 on tissue sections. […] Integrated optical density (IOD) was measured by image-Pro Plus software (version 6.0, Media Cybernetics, MD, USA) for images of five randomly selected regions from a slice. The results were expressed as average optical density (AOD = IOD/area).

MAGE-D4 = MAGE-D4 expression (qRT-PCR, Western blot) in U87; format: cell-based, human; conditions: U87, compared to the control (0.09% DMSO); 1 μM TSA 24 h
Procedure: as §1, with “Decitabine (DAC, CAS No.” left out, “-80°C” for “−80°C”, “[…] Relative intensities of the bands were normalized with GAPDH” for “Human recombinant interleukin (IL) IL-2, IL-4,”, “analyzed by ImageJ (NIH, Maryland, USA).” for “human recombinant granulocyte/macrophage colony-stimulating factor (GM-CSF) were purchased from R&D Systems.”

Compound	cytotoxicity of peptide-specific T cells (specific lysis, LDH) (U251; DAC + TSA-treated U251, E:T 50:1, 4 h)	killing efficiency after HLA I block (U251; target cells pre-incubated with HLA-ABC antibody 50 μg/ml, 37°C 40 min, versus groups without anti-HLA antibodies, Figure 6I)	CD8+ T-cell infiltration in tumor tissue (U87 glioma tissues)	MAGE-D4 mRNA and protein expression (MAGE-D4)
CLPPPNVIL [Peptide P8]	cytotoxicity on the DAC + TSA-treated U251 cells with statistical significance	significantly decreased	–	–
CC(/C=C/C(=O)NO)=C\[C@@H](C)C(=O)c1ccc(N(C)C)cc1 [TSA, trichostatin A]	–	–	highest degree	higher

Reference: paper PMC9382192, “Combined treatment with epigenetic agents enhances anti-tumor activity of MAGE-D4 peptide-specific T cells by upregulating the MAGE-D4 expression in glioma” (Frontiers in Oncology, 2022)
